The test has as its target T1, gp91phox (Homo sapiens, UniProt P04839).
T1 sequence (P04839 2-570): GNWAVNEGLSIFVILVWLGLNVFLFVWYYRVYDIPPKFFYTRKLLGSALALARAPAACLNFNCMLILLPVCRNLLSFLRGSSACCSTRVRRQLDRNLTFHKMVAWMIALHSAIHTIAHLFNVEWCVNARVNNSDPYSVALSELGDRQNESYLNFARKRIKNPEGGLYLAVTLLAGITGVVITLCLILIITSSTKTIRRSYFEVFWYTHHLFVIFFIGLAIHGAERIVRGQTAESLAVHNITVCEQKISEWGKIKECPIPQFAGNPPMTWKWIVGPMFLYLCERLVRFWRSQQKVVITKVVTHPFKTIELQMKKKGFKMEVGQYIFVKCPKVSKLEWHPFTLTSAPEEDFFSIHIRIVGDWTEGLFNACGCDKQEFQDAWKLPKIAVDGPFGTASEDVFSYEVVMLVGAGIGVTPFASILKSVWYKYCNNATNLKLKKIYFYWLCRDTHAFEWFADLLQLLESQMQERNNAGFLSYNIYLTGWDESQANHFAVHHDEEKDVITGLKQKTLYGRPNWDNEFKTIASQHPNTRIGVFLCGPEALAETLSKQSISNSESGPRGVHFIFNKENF
T1 sequence (P13498 2-195 partner): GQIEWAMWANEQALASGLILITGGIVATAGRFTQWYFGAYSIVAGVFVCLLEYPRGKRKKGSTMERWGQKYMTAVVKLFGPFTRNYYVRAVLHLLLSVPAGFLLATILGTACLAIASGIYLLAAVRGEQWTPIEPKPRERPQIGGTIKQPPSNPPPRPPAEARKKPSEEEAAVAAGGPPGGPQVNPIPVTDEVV
Kind of test: saturation radioligand binding on COS-cytob558 membranes.

In the case of `C=C(C)[C@H]1Cc2c(ccc3c2O[C@@H]2COc4cc(OC)c(OC)cc4[C@@H]2C3=O)O1` [rotenone], the Kd amounted to 21.2 ± 3.47 nM.
